Measurements: US11571396B2, “Ketamine for treatment of ADNP syndrome and sensory processing deficits” (priority 2019, dated 2023)

Assays:
ADNP gene expression = details: cited from earlier work; for ADNP gene expression increase: somatosensory cortex of post-natal day 7 rats, sedative dose
growth cones = details: cited from earlier work
[1] = test system: caspase-3 activation in the hippocampus and somatosensory cortex; assay: Ketamine-induced neuronal cell death / injury, low-dose ketamine pre-treatment; assay type: in vivo, rats; details: for high dose ketamine induced injury: low dose ketamine 5 mg/kg, NAP administration
From the text: ADNP induction may be partially responsible for the efficacy of a low-dose ketamine pre-treatment in preventing ketamine-induced neuronal cell death. […] It is therefore theorized that low-dose ketamine prevents high-dose ketamine injury at least in part by increasing expression of ADNP.

Neurons = Neurons treated with low concentration ketamine: ADNP levels and growth cones; assay type: cell-based
From the text: We believe that low-dose ketamine, by inducing ADNP, does more than could be with NAP alone.

Q: For `C[C@]12N[C@H](Cc3ccccc31)c1ccccc12` [MK801], which “ADNP gene expression increase” value (ADNP gene expression) is on record?
A: The value was 1.5 fold.

Q: With NAPVSIPQ as the molecule, how does the “invasion of dynamic microtubules into growth cones” value (growth cones) read?
A: The value was “enhance the invasion of dynamic microtubules into growth cones”.

Q: What about the “high dose ketamine induced injury” value [1] of the same molecule?
A: Its value is “blocks high dose ketamine induced injury”.

Q: For `CNC1(c2ccccc2Cl)CCCCC1=O` (stereo not drawn) [ketamine], which “gene expression of ADNP” value (ADNP gene expression; anesthetic doses) is on record?
A: The value was “induce gene expression of ADNP”.

Q: And the ADNP protein levels (ADNP gene expression; low doses, including in the somatosensory cortex)?
A: The ADNP protein levels was “increase ADNP protein levels”.

Q: What about the ADNP expression (ADNP gene expression; low doses) of the same molecule?
A: Its ADNP expression is “induce ADNP expression”.

Q: What about the “ADNP gene expression increase” value (ADNP gene expression) of the same molecule?
A: The value was 1.5 fold.

Q: What about the apoptosis ([1]; high-dose ketamine, rats) of the same molecule?
A: Its apoptosis is “induce apoptosis”.

Q: What about the “expression of ADNP” value ([1]; high-dose ketamine, rats) of the same molecule?
A: Its value is “induce”.

Q: And the “high dose ketamine induced injury” value [1]?
A: The value was “blocks high dose ketamine induced injury”.

Q: And the ADNP levels ([1]; low-dose ketamine)?
A: Its ADNP levels is “increases ADNP levels”.

Q: What about the caspase-3 activation ([1]; low-dose ketamine, hippocampus and somatosensory cortex) of the same molecule?
A: The caspase-3 activation was “prevents caspase-3 activation”.

Q: What about the “negative effects of decreased growth cones” value (Neurons; 50 μM) of the same molecule?
A: The value was “not observed”.

Q: What about the ADNP levels (Neurons; 50 μM, compared with higher ketamine dosing) of the same molecule?
A: Its ADNP levels is “increased at a rate equivalent to higher ketamine dosing”.

Q: And the “location of primary increase in ADNP” value (Neurons; following ketamine treatment)?
A: Its value is “the primary increase in ADNP occurred in the nucleus”.

Q: What about the “total cellular ADNP levels” value (Neurons; low concentration exposure, 50 or 100 μM) of the same molecule?
A: Its value is “notably increased”.

Q: What about the ADNP in neurites (Neurons; low concentration of ketamine) of the same molecule?
A: The ADNP in neurites was “significant increase”.

Q: What about the growth cones (Neurons; low concentration of ketamine) of the same molecule?
A: Its growth cones is “stably expanded growth cones”.
